What was measured:
Type in all cases: cell-based
BRAF D594G = target: T1, BRAF D594G (Homo sapiens, UniProt P15056, D594G); assay: BRAF HiBiT degradation assay, C-terminal HiBiT-tagged BRAF D594G overexpressed in HCT-116 BRAF−/− cells (clone 63), Nano-Glo HiBiT Lytic assay
T1 construct: Horizon Discovery (HCT-116 BRAF−/− cells); host or cells: HCT-116 BRAF−/− cells, clone 63, lentiviral transduction
Outline: (§1)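 Degradation was read by Nano-Glo HiBiT lytic luminescence, normalised to DMSO-treated tagged cells with wildtype HCT-116 as background. Test cells were lentiviral clones of HCT-116 BRAF−/− carrying HiBiT-tagged mutants in RPMI/10% FBS, given compound at 0.01 nM–1 μM in duplicate. Outputs are the curve-fitted concentration giving 50% degradation and the maximal observed degradation.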

BRAF V600E = target: T2, BRAF V600E (Homo sapiens, UniProt P15056, V600E); assay: BRAF HiBiT degradation assay, C-terminal HiBiT-tagged BRAF V600E A375 cells (clone 1F10), Nano-Glo HiBiT Lytic assay; settings: for Dmax: A-375
T2 construct: endogenous C-terminal HiBiT fusion tag on BRAF V600E allele; endogenous in cells; host or cells: A375 clone 1F10 (CRISPR-Cas9 knock-in of the HiBiT tag; parental A375 from ATCC)
Outline: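 Luminescence from the Nano-Glo HiBiT lytic read-out gave % BRAF V600E remaining versus DMSO-treated tagged cells, with untagged A375 as background. Clone 1F10 cells (10,000/well, 24 h pre-culture) received compound at 1 μM–0.01 nM in half-log steps, 0.2% DMSO; curve fits gave DC50 at Y=50, plus observed Dmax.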

BRAF G469A = target: T3, BRAF G469A (Homo sapiens, UniProt P15056, G469A); assay: BRAF HiBiT degradation assay, C-terminal HiBiT-tagged BRAF G469A overexpressed in HCT-116 BRAF−/− cells (clone 34), Nano-Glo HiBiT Lytic assay
T3 construct: Horizon Discovery (HCT-116 BRAF−/− cells); host or cells: HCT-116 BRAF−/− cells, clone 34, lentiviral transduction
Outline: as §1

BRAF G466V = target: T4, BRAF G466V (Homo sapiens, UniProt P15056, G466V); assay: BRAF HiBiT degradation assay, C-terminal HiBiT-tagged BRAF G466V overexpressed in HCT-116 BRAF−/− cells (clone 8), Nano-Glo HiBiT Lytic assay
T4 construct: Horizon Discovery (HCT-116 BRAF−/− cells); host or cells: HCT-116 BRAF−/− cells, clone 8, lentiviral transduction
Outline: as §1

[1] = BRAF D594G (Class 3), HCT-116 BRAF−/− cells, DC50 at 50% degradation
[2] = BRAF D594G (Class 3), HCT-116 BRAF−/− cells, observed Dmax relative to DMSO control
[3] = A375 (BRAF V600E, Class 1), DC50 at 50% degradation
[4] = A375 (BRAF V600E, Class 1), observed Dmax, % protein degraded relative to DMSO control
[5] = BRAF G469A (Class 2), HCT-116 BRAF−/− cells, DC50 at 50% degradation
[6] = BRAF G469A (Class 2), HCT-116 BRAF−/− cells, observed Dmax relative to DMSO control
[7] = BRAF G466V (Class 3), HCT-116 BRAF−/− cells, DC50 at 50% degradation
[8] = BRAF G466V (Class 3), HCT-116 BRAF−/− cells, observed Dmax relative to DMSO control
[9] = BRAF D594G, DC50 at 50%: fitted conc. at Y=50
[10] = HCT-116, BRAF D594G, percentage protein degraded at maximal compound effect relative to DMSO
[11] = A375 (BRAF V600E), DC50 at 50%: fitted conc. at Y=50
[12] = A375 (BRAF V600E), percentage protein degraded at maximal compound effect relative to DMSO
[13] = Class 2, BRAF G469A, DC50 at 50%: fitted conc. at Y=50
[14] = HCT-116, Class 2, BRAF G469A, percentage protein degraded at maximal compound effect relative to DMSO
[15] = BRAF G466V, DC50 at 50%: fitted conc. at Y=50
[16] = HCT-116, BRAF G466V, percentage protein degraded at maximal compound effect relative to DMSO

T4 sequence (P15056 whole entry G466V): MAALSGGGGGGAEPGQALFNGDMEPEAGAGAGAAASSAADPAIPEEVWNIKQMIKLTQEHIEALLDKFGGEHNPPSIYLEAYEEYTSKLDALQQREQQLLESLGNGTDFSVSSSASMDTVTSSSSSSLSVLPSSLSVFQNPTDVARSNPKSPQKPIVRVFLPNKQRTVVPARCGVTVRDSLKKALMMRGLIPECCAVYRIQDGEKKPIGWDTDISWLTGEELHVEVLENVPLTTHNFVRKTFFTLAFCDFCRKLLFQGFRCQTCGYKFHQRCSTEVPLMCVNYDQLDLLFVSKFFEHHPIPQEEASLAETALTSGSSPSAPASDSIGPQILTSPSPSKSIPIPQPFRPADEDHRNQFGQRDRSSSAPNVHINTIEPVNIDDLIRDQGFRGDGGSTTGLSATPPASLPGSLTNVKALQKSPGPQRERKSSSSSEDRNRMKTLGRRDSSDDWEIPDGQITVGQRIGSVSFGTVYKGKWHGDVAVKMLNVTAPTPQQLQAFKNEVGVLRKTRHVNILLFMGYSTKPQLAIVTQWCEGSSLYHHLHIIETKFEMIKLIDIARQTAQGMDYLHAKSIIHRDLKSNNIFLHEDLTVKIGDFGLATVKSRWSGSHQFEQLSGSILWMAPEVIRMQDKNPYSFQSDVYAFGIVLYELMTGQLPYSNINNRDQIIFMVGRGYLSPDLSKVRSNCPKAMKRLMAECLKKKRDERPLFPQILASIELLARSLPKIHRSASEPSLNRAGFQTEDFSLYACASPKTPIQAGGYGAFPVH
T3 sequence (P15056 whole entry G469A): as the sequence (P15056 whole entry G466V) above, with V466G, G469A counted along it
T2 sequence (P15056 whole entry V600E, the tested form may be a part): as the sequence (P15056 whole entry G466V) above, with V466G, V600E counted along it
T1 sequence (P15056 whole entry D594G): as the sequence (P15056 whole entry G466V) above, with V466G, D594G counted along it

Structure (SMILES)	DC50 (BRAF D594G; [1])	Dmax (BRAF D594G; [2])	DC50 (BRAF V600E; [3])	Dmax (BRAF V600E; [4])	DC50 (BRAF G469A; [5])	Dmax (BRAF G469A; [6])	DC50 (BRAF G466V; [7])	Dmax (BRAF G466V; [8])	DC50 (BRAF D594G; [9])	Dmax (BRAF D594G; [10])	DC50 (BRAF V600E; [11])	Dmax (BRAF V600E; [12])	DC50 (BRAF G469A; [13])	Dmax (BRAF G469A; [14])	DC50 (BRAF G466V; [15])	Dmax (BRAF G466V; [16])
O=C1CCN(c2ccc(N3CCC(CN4CCN(c5ccc(-n6cc(-c7cc(C(F)F)cc(NS(=O)(=O)N8CCCC8)c7F)c(-c7ccncc7)n6)c(F)c5)CC4)CC3)cc2)C(=O)N1 [Compound 356, N-[5-(difluoromethyl)-3-(1-{4-[4-({1-[4-(2,4-dioxo-1,3-diazinan-1-yl)phenyl]piperidin-4-yl}methyl)piperazin-1-yl]-2-fluorophenyl}-3-(pyridin-4-yl)-1H-pyrazol-4-yl)-2-fluorophenyl]pyrrolidine-1-sulfonamide]	> 500 nM	30 to 70%	10 to 50 nM	> 70%	> 500 nM	< 30%	10 to 50 nM	30 to 70%	–	–	–	–	–	–	–	–
CCCS(=O)(=O)Nc1cccc(-c2nc(C3(C)CCN(C(=O)C4CCN(CC5CCN(c6ccc(C7CCC(=O)NC7=O)cc6)CC5)CC4)CC3)sc2-c2ccnc(N)n2)c1F (racemic) [Compound 227, Rac-N-{3-[5-(2-aminopyrimidin-4-yl)-2-(1-{1-[(1-{4-[(3R)-2,6-dioxopiperidin-3-yl]phenyl}piperidin-4-yl)methyl]piperidine-4-carbonyl}-4-methylpiperidin-4-yl)-1,3-thiazol-4-yl]-2-fluorophenyl}propane-1-sulfonamide]	–	–	–	–	–	–	–	–	> 500 nM	30 to 70%	< 10 nM	> 70%	> 500 nM	30 to 70%	> 500 nM	30 to 70%
CCN(C)S(=O)(=O)Nc1cccc(-c2nc(C(C)(C)C)sc2-c2ccnc(Nc3ccc(N4CCN(C(=O)CN5CCc6cc(C7CCC(=O)NC7=O)ccc6C5)CC4)c(F)c3)n2)c1F (racemic) [Compound 28, Rac-(3R)-3-[2-(2-{4-[4-({4-[2-tert-butyl-4-(3-{[ethyl(methyl)sulfamoyl]amino}-2-fluorophenyl)-1,3-thiazol-5-yl]pyrimidin-2-yl}amino)-2-fluorophenyl]piperazin-1-yl}-2-oxoethyl)-1,2,3,4-tetrahydroisoquinolin-6-yl]piperidine-2,6-dione]	–	–	–	–	–	–	–	–	10 to 50 nM	30 to 70%	< 10 nM	> 70%	10 to 50 nM	30 to 70%	< 10 nM	30 to 70%
CCCS(=O)(=O)Nc1cccc(-c2nc(C3CCC4(CC3)CCN(CC[C@H]3CCN(c5ccc(C6CCC(=O)NC6=O)cn5)C3)CC4)sc2-c2ccnc(N)n2)c1F (mixture of isomers) [Compound 259, N-{3-[5-(2-aminopyrimidin-4-yl)-2-(3-{2-[(3S)-1-{5-[(3RS)-2,6-dioxopiperidin-3-yl]pyridin-2-yl}pyrrolidin-3-yl]ethyl}-3-azaspiro[5.5]undecan-9-yl)-1,3-thiazol-4-yl]-2-fluorophenyl}propane-1-sulfonamide]	> 500 nM	< 30%	10 to 50 nM	30 to 70%	> 500 nM	< 30%	> 500 nM	< 30%	–	–	–	–	–	–	–	–
O=C1CCN(c2ccc(N3CCC(CN4CCN(c5ccc(-n6cc(-c7cc(Cl)cc(NS(=O)(=O)N8CC[C@@H](F)C8)c7F)c(-c7ccncc7)n6)cc5)CC4)CC3)nc2)C(=O)N1 [Compound 263, (R)—N-(5-chloro-3-(1-(4-(4-((1-(5-(2,4-dioxotetrahydropyrimidin-1(2H)-yl)pyridin-2-yl)piperidin-4-yl)methyl)piperazin-1-yl)phenyl)-3-(pyridin-4-yl)-1H-pyrazol-4-yl)-2-fluorophenyl)-3-fluoropyrrolidine-1-sulfonamide]	< 10 nM	30 to 70%	< 10 nM	> 70%	< 10 nM	30 to 70%	< 10 nM	> 70%	–	–	–	–	–	–	–	–

From patent US20260317324A1, “BIFUNCTIONAL COMPOUNDS FOR DEGRADING BRAF VIA UBIQUITIN PROTEOSOME PATHWAY” (Nurix Therapeutics, Inc., priority 2023, published 2026)
